Several values for one entry are separate records, joined by “and”; a condition that tells them apart may be missing. Equal values may be shown once. Read-outs that look alike come from different tables or passages of the source.
Key:
[1] = molecular target: human Brd4 BD1 (Homo sapiens, UniProt O60885); assay: HTRF assay, inhibition of H4ac4 peptide binding; settings: for %HTRF Signal: Exp1-3
[2] = test system: CgBdf1 BD2; assay: Histone peptide array assay; settings: peptide array signal
Experimental: (§1) The array was prepared as described in the manufacturer's instructions. […] The array was then washed three times with binding buffer. Anti‐GST antibody (GE Healthcare) was used for the detection of GST‐tagged bromodomains.

[3] = test system: CgBdf1 BD1; assay: Histone peptide array assay; settings: peptide array signal
Experimental: as §1

[4] = test system: C. glabrata strains expressing WT and mutant Bdf1; assay: Growth inhibition in liquid media, C. glabrata lab strains; settings: Exp 1-3, Figure S9A
Experimental: Growth on Liquid Media with C. glabrata Lab Strains: Cells were grown at 30 °C in SC+M+C‐U medium (SC medium with 5 mM methionine, 0.25 mM cysteine, without uracil) to an OD600 of 0.5–0.8. […] Plates were incubated at 30 °C and OD600 was measured using a Multiskan FC Microplate Photometer (Thermo Fisher).

[5] = molecular target: CgBdf1 BD1 (Candida glabrata, UniProt Q6FWV7); assay: HTRF assay, inhibition of H4ac4 peptide binding; parameters: species or system C. glabrata; settings: for IC50: Table S4
Chain of CgBdf1 BD1 (Candida glabrata, UniProt Q6FWV7) (Q6FWV7 entry or part of it): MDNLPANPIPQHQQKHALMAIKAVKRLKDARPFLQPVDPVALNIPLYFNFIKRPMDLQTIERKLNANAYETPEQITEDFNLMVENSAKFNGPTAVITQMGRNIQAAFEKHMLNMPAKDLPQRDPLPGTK

[6] = molecular target: CgBdf1 BD2 (Candida glabrata, UniProt Q6FWV7); assay: biochemical; format: binding, C. glabrata
Chain of CgBdf1 BD2 (Candida glabrata, UniProt Q6FWV7) (Q6FWV7 entry or part of it): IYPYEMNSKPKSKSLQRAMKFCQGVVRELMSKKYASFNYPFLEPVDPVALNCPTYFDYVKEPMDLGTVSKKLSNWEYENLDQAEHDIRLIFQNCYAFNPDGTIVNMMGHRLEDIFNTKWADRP

[7] = molecular target: T1, human Brd4 BD2 (Homo sapiens, UniProt O60885); assay: HTRF assay, inhibition of H4ac4 peptide binding; settings: hBrd4 BD2; for %HTRF Signal: Exp1-3
T1 construct: GST‐tagged BD2 (residues 349–460) from human Brd4 (UniProt ID O60885); purchased Reaction Biology Corp

[8] = test system: C. glabrata strains (WT, pdr1∆ or PDR1 rescue); assay: Growth assays to assess compound efflux; format: cell-based; settings: for growth (Figure S10A): three replicates
Experimental: Cells from a single colony were diluted in 0.85% NaCl before being counted using a Neubauer chamber. […] The effect of fluconazole was tested by titration on these strains under similar conditions.

[9] = Fig 1D/2A original data, single experiments Exp1-3

Cn1nccc1C(=O)NCc1ccc(-c2nc(-c3cccs3)no2)s1 [Compound 63]
pIC50 hBrd4 BD1 [1, 9]: 4.548 and 4.767 and 4.490
IC50 ([1]; Table S3, estimate, preliminary single-replicate HTRF assay, read-out: IC50 Brd4 BD1): > 20 µM
IC50 ([1]; Table S4, means ± SD, n=3, read-out: IC50 hBrd4 BD1): 25.9 ± 7.9 µM
%HTRF Signal ([1]; hBrd4 BD1, compound 2.10 nM): 98.36% and 97.75% and 98.52%
%HTRF Signal ([1]; hBrd4 BD1, compound 5.24 nM): 96.44% and 101.52% and 99.57%
%HTRF Signal ([1]; hBrd4 BD1, compound 13.11 nM): 96.19% and 93.70% and 100.56%
%HTRF Signal ([1]; hBrd4 BD1, compound 32.77 nM): 100.99% and 95.89% and 96.28%
%HTRF Signal ([1]; hBrd4 BD1, compound 81.92 nM): 95.84% and 103.64% and 102.41%
%HTRF Signal ([1]; hBrd4 BD1, compound 204.8 nM): 99.83% and 98.50% and 97.67%
%HTRF Signal ([1]; hBrd4 BD1, compound 512 nM): 96.60% and 93.56% and 96.36%
%HTRF Signal ([1]; hBrd4 BD1, compound 1280 nM): 82.33% and 98.72% and 104.43%
%HTRF Signal ([1]; hBrd4 BD1, compound 3200 nM): 94.57% and 92.75% and 93.44%
%HTRF Signal ([1]; hBrd4 BD1, compound 8000 nM): 83.80% and 81.87% and 89.53%
%HTRF Signal ([1]; hBrd4 BD1, compound 20000 nM): 44.73% and 68.85% and 53.13%
IC50 ([1]; hBrd4 BD1, individual experiments Exp1-3, Table S4, read-out: IC50): 17.1 µM and 32.4 µM and 28.3 µM
Raw data, WT ([2]; CgBdf1 BD2 WT, first replicate column): 0.004055
Normalized (0 to 100%), WT ([2]; CgBdf1 BD2 WT, mean of the two raw values): 0.593%
Raw data, WT ([2]; CgBdf1 BD2 WT, second replicate column): 0.007798
Raw data, YF mutant ([2]; CgBdf1 BD2 YF mutant, first replicate column): 0.009509
Normalized (0 to 100%), YF mutant ([2]; CgBdf1 BD2 YF mutant, mean of the two raw values): 0.675%
Raw data, YF mutant ([2]; CgBdf1 BD2 YF mutant, second replicate column): 0.003988
Raw data, WT ([3]; CgBdf1 BD1 WT, first replicate column): 0.003151
Normalized (0 to 100%), WT ([3]; CgBdf1 BD1 WT, mean of the two raw values): 1.81%
Raw data, WT ([3]; CgBdf1 BD1 WT, second replicate column): 0.03308
Raw data, YF mutant ([3]; CgBdf1 BD1 YF mutant, first replicate column): 0.001234
Normalized (0 to 100%), YF mutant ([3]; CgBdf1 BD1 YF mutant, mean of the two raw values): 0.216%
Raw data, YF mutant ([3]; CgBdf1 BD1 YF mutant, second replicate column): 0.003085
OD at 600 nm ([4]; WT BDF1 strain): 0.4973 and 0.4763 and 0.4793
OD at 600 nm ([4]; bdf1-bd1Δ strain): 0.2357 and 0.2187 and 0.2437
OD at 600 nm ([4]; bdf1-bd2Δ strain): 0.1390 and 0.1480 and 0.1420
%HTRF Signal [5]: 92.96% and 94.93% and 114.99%
%HTRF Signal ([5]; CgBD1, compound 2.10 nM, Exp1-3): 89.22% and 91.15% and 92.46%
%HTRF Signal ([5]; CgBD1, compound 13.11 nM, Exp1-3): 137.24% and 96.18% and 98.59%
%HTRF Signal ([5]; CgBD1, compound 32.77 nM, Exp1-3): 89.47% and 88.02% and 93.78%
%HTRF Signal ([5]; CgBD1, compound 81.92 nM, Exp1-3): 87.12% and 79.28% and 89.90%
%HTRF Signal ([5]; CgBD1, compound 204.8 nM, Exp1-3): 79.54% and 70.30% and 76.77%
%HTRF Signal ([5]; CgBD1, compound 512 nM, Exp1-3): 60.42% and 54.51% and 55.50%
%HTRF Signal ([5]; CgBD1, compound 1280 nM, Exp1-3): 88.32% and 78.12% and 81.58%
%HTRF Signal ([5]; CgBD1, compound 3200 nM, Exp1-3): 43.73% and 36.43% and 36.08%
%HTRF Signal ([5]; CgBD1, compound 8000 nM, Exp1-3): 32.25% and 38.09% and 29.97%
%HTRF Signal ([5]; CgBD1, compound 20000 nM, Exp1-3): 23.85% and 25.61% and 19.76%
IC50 ([5]; CgBD1, individual experiments Exp1-3, read-out: IC50): 0.62 µM and 0.71 µM and 0.5 µM
pIC50 CgBD1 [5, 9]: 6.209 and 6.147 and 6.298
IC50 ([5]; means ± SD, n=3, read-out: IC50 CgBD1): 0.61 ± 0.1 µM
%HTRF Signal [6]: 91.88% and 95.70% and 106.64%
pIC50 CgBD2 [6]: ≤ 4
%HTRF Signal ([6]; CgBD2, compound 2.10 nM, Exp1-3): 86.71% and 109.56% and 96.63%
%HTRF Signal ([6]; CgBD2, compound 13.11 nM, Exp1-3): 107.12% and 98.52% and 93.70%
%HTRF Signal ([6]; CgBD2, compound 32.77 nM, Exp1-3): 87.98% and 111.39% and 100.52%
%HTRF Signal ([6]; CgBD2, compound 81.92 nM, Exp1-3): 93.69% and 107.27% and 99.37%
%HTRF Signal ([6]; CgBD2, compound 204.8 nM, Exp1-3): 87.47% and 98.47% and 101.59%
%HTRF Signal ([6]; CgBD2, compound 512 nM, Exp1-3): 94.84% and 95.89% and 102.41%
%HTRF Signal ([6]; CgBD2, compound 1280 nM, Exp1-3): 108.51% and 97.41% and 103.91%
%HTRF Signal ([6]; CgBD2, compound 3200 nM, Exp1-3): 96.71% and 89.90% and 106.57%
%HTRF Signal ([6]; CgBD2, compound 8000 nM, Exp1-3): 101.27% and 103.49% and 103.29%
%HTRF Signal ([6]; CgBD2, compound 20000 nM, Exp1-3): 98.71% and 85.34% and 94.42%
IC50 ([6]; CgBD2, individual experiments Exp1-3, Table S4, read-out: IC50): > 20 µM
%HTRF Signal ([7]; compound 2.10 nM): 99.18% and 94.17% and 90.64%
%HTRF Signal ([7]; compound 5.24 nM): 99.39% and 99.07% and 97.43%
%HTRF Signal ([7]; compound 13.11 nM): 98.29% and 101.48% and 93.41%
%HTRF Signal ([7]; compound 32.77 nM): 93.01% and 99.51% and 101.32%
%HTRF Signal ([7]; compound 81.92 nM): 102.00% and 98.93% and 106.04%
%HTRF Signal ([7]; compound 204.8 nM): 100.03% and 105.21% and 104.21%
%HTRF Signal ([7]; compound 512 nM): 98.01% and 98.41% and 97.72%
%HTRF Signal ([7]; compound 1280 nM): 99.07% and 96.81% and 100.81%
%HTRF Signal ([7]; compound 3200 nM): 102.84% and 98.87% and 104.55%
%HTRF Signal ([7]; compound 8000 nM): 108.22% and 84.57% and 107.59%
%HTRF Signal ([7]; compound 20000 nM): 102.02% and 76.14% and 105.57%
IC50 ([7]; individual experiments Exp1-3, Table S4, read-out: IC50): > 20 µM (2×) and 29.2 µM

OC(Cn1cncn1)(Cn1cncn1)c1ccc(F)cc1F [fluconazole]
growth (Figure S10A) ([8]; Cg101 pdr1Δ mut, Fluconazole 0.5 µg/mL): 21% and 19% and 15%
growth (Figure S10A) ([8]; Cg101 pdr1Δ mut, Fluconazole 1 µg/mL): 12% and 11% and 6%
growth (Figure S10A) ([8]; Cg101 pdr1Δ mut, Fluconazole 2 µg/mL): 6% (2×) and 2%
growth (Figure S10A) ([8]; Cg101 pdr1Δ mut, Fluconazole 4 µg/mL): 6% and 3% and 2%
growth (Figure S10A) ([8]; Cg102 pdr1 rescue, Fluconazole 0.5 µg/mL): 55% and 61% and 53%
growth (Figure S10A) ([8]; Cg102 pdr1 rescue, Fluconazole 1 µg/mL): 36% and 35% and 25%
growth (Figure S10A) ([8]; Cg102 pdr1 rescue, Fluconazole 2 µg/mL): 14% and 19% and 18%
growth (Figure S10A) ([8]; Cg102 pdr1 rescue, Fluconazole 4 µg/mL): 5% and 9% and 6%
growth (Figure S10A) ([8]; Cg103 PDR1 WT, Fluconazole 0.5 µg/mL): 57% and 60% and 48%
growth (Figure S10A) ([8]; Cg103 PDR1 WT, Fluconazole 1 µg/mL): 24% (2×) and 33%
growth (Figure S10A) ([8]; Cg103 PDR1 WT, Fluconazole 2 µg/mL): 13% and 12% and 14%
growth (Figure S10A) ([8]; Cg103 PDR1 WT, Fluconazole 4 µg/mL): 6% and 5% (2×)
sensitivity upon deletion of PDR1 ([8]; titration, pdr1Δ versus WT and rescue strains): enhanced
